This passage reports IC50 results from patent publication US20240294531A1, “COVALENT HETEROCYCLES AND USES THEREOF” (Kumquat Biosciences Inc., priority 2022, published 2024).

The target of one assay is BTK wildtype protein (Homo sapiens (Human), UniProt Q06187). The assay can be described thus: BTK wildtype HTRF displacement assay. It counts as binding. The following applies: 1-hour incubation; read-out: BTK (wt) IC50. The method, then:
(§1) The ability of a compound to bind BTK wildtype or BTK C481S proteins was measured using an HTRF displacement assay. The assay measures the ability of a compound to displace a tracer ligand bound to the active site of BTK wildtype or BTK C481 S proteins.
(§2) Test compounds were prepared as 10 mM stock solutions in DMSO (Fisher cat #BP231-100). Compounds to be assayed were dispensed using an Echo 650 acoustic dispenser (Beckman Coulter) on a 384 well plate in 6 doses applying four-fold dilutions from the highest concentration of 5 μM. N-terminal GST-tagged recombinant full-length BTK wildtype protein and BTK C481 S protein 2-659 were purchased from Carna Biosciences, Inc (Kobe, Japan). BTK wildtype or BTK C481S protein was separately incubated with compound in assay buffer containing kinase tracer 239 (Thermo Fisher) and Mab anti GST-Th (PerkinElmer). After a 1-hour incubation at room temperature, the HTRF signal was measured using SPARK plate reader (Tecan) using the TR fluorescence mode. The HTRF ratio is calculated for DMSO, no protein control and compound samples using the following equation: HTRF ratio=Emmision665/Emmision620×10^4. The signal for the no protein control samples was used to subtract background noise from the DMSO and compound samples. Background subtracted HTRF ratios are used to calculate the percent inhibition, where DMSO controls are set to 0 percent inhibition. The percent inhibition is plotted as a function of compound concentration and IC50 values were calculated from a four-parameter logistic fit in Prism v9.4 (GraphPad), where the bottom and top are constrained to 0 and 100, respectively.

The next assay deals with BTK C481S protein (Homo sapiens (Human), UniProt Q06187, C481S). The assay can be described thus: BTK C481S HTRF displacement assay. It is filed as binding. Conditions: 1-hour incubation. The method, then:
as §1, §2
The same assay was used to measure the activity of selected compounds of the formula TBM-L-hydrogen. Using the IC50 value observed for a given reversible test compound, the KI of the test compound can be assessed using the formula KI=IC50/(1+([Tracer]/Kd)), wherein the tracer concentration in the assay [Tracer] is 50 nM and the tracer Kd for BTK C481S is 54 nM.

Structures are written as SMILES.

Chain of BTK C481S protein (Q06187 2-659 C481S): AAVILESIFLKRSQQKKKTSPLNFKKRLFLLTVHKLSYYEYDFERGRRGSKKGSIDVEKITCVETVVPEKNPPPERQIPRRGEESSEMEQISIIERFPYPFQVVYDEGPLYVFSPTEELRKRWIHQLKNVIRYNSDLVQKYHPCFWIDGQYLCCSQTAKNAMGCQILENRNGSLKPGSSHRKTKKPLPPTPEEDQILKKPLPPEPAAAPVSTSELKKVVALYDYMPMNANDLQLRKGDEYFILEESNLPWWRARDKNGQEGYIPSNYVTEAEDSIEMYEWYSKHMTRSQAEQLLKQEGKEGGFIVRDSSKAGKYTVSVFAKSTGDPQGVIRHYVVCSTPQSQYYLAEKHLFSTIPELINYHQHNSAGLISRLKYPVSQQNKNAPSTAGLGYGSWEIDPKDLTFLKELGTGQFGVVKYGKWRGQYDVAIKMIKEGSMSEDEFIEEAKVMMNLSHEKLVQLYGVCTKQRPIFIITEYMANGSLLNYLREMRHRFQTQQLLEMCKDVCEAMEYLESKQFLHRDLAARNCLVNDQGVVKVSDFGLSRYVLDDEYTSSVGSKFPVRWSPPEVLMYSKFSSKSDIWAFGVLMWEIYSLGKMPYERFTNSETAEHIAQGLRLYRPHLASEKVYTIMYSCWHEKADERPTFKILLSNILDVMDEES
Chain of BTK wildtype protein (Q06187 2-659): as the sequence (Q06187 2-659 C481S) above, with S480C counted along it

In the case of `COc1ccc(F)cc1C(=O)NCc1ccc(-c2nn(CC3CN(C(C)=O)CCN3C(=O)n3cncn3)c3ncnc(N)c23)cc1` (stereo not drawn) [Compound 313, N-(4-(1-((4-acetyl-1-(1H-1,2,4-triazole-1-carbonyl)piperazin-2-yl)methyl)-4-amino-1H-pyrazolo[3,4-d]pyrimidin-3-yl)benzyl)-5-fluoro-2-methoxybenzamide], the IC50 at BTK wildtype protein and at BTK C481S protein was over 1000 nM in each case.

On to `COc1ccc(F)cc1C(=O)NCc1ccc(-c2nn(-c3cccc(CN(C)C(=O)n4cncn4)c3)c3ncnc(N)c23)cc1` [Compound 191, N-(3-(4-amino-3-(4-((5-fluoro-2-methoxybenzamido)methyl)phenyl)-1H-pyrazolo[3,4-d]pyrimidin-1-yl)benzyl)-N-methyl-1H-1,2,4-triazole-1-carboxamide], for which the IC50 at BTK wildtype protein and on BTK C481S protein was at most 1000 nM throughout.

For `COc1ccc(F)cc1C(=O)NCc1ccc(-c2nn(C3(CN(C)C(=O)n4cnc(C#N)n4)CC3)c3ncnc(N)c23)cc1` [Compound 117, N-((1-(4-amino-3-(4-((5-fluoro-2-methoxybenzamido)methyl)phenyl)-1H-pyrazolo[3,4-d]pyrimidin-1-yl)cyclopropyl)methyl)-3-cyano-N-methyl-1H-1,2,4-triazole-1-carboxamide], the IC50 was at most 1000 nM at BTK wildtype protein and over 1000 nM at BTK C481S protein.

Turning to `CN(C(=O)n1cncn1)C1CCCC1C1CCNc2c(C(N)=O)c(-c3ccc(Oc4ccccc4)cc3)nn21` (stereo not drawn) [Compound 235, 7-(2-(N-methyl-1H-1,2,4-triazole-1-carboxamido)cyclopentyl)-2-(4-phenoxyphenyl)-4,5,6,7-tetrahydropyrazolo[1,5-a] pyrimidine-3-carboxamide], the IC50 at BTK wildtype protein and at BTK C481S protein was over 1000 nM each time.

With `NC(=O)c1c(-c2ccc(Oc3ccccc3)cc2)nn2c1NCC1CN(C(=O)n3cncn3)CC12` (stereo not drawn) [Compound 228, 2-(4-phenoxyphenyl)-7-(1H-1,2,4-triazole-1-carbonyl)-5,5a,6,7,8,8a-hexahydro-4H-pyrazolo[1,5-a] pyrrolo[3,4-e]pyrimidine-3-carboxamide], the IC50 at BTK wildtype protein and on BTK C481S protein was over 1000 nM each time.

Turning to `COc1ccc(F)cc1C(=O)NCc1ccc(-c2nn(C(CN(C(=O)n3cncn3)C3CC3)C3CC3)c3ncnc(N)c23)cc1` (stereo not drawn) [Compound 231, N-(2-(4-amino-3-(4-((5-fluoro-2-methoxybenzamido)methyl)phenyl)-1H-pyrazolo[3,4-d]pyrimidin-1-yl)-2-cyclopropyl-ethyl)-N-cyclopropyl-1H-1,2,4-triazole-1-carboxamide], the IC50 at BTK wildtype protein and on BTK C481S protein was over 1000 nM in each case.

Take `CN(C(=O)n1cnc(Cl)n1)C1CCCC(n2nc(-c3ccc(Oc4ccccc4)cc3)c3c(N)ncnc32)C1` (stereo not drawn) [Compound 239, N-(3-(4-amino-3-(4-phenoxyphenyl)-1H-pyrazolo[3,4-d]pyrimidin-1-yl)cyclohexyl)-3-chloro-N-methyl-1H-1,2,4-triazole-1-carboxamide]: the IC50 at BTK wildtype protein and on BTK C481S protein was at most 1000 nM throughout.

For `NC(=O)c1c(-c2ccc(Oc3ccccc3)cc2)nn2c1NCCC2C1CN(C(=O)n2cncn2)C1` (stereo not drawn) [Compound 220, 7-(1-(1H-1,2,4-triazole-1-carbonyl)azetidin-3-yl)-2-(4-phenoxyphenyl)-4,5,6,7-tetrahydropyrazolo[1,5-a] pyrimidine-3-carboxamide], the IC50 at BTK wildtype protein and at BTK C481S protein was at most 1000 nM in each case.

Consider `COc1ccc(F)cc1C(=O)NCc1ccc(-c2nn(CC3CC(O)CCN3C(=O)n3cncn3)c3ncnc(N)c23)cc1` (stereo not drawn) [Compound 298, N-(4-(4-amino-1-((4-hydroxy-1-(1H-1,2,4-triazole-1-carbonyl)piperidin-2-yl)methyl)-1H-pyrazolo[3,4-d]pyrimidin-3-yl)benzyl)-5-fluoro-2-methoxybenzamide], for which the IC50 at BTK wildtype protein and on BTK C481S protein was over 1000 nM throughout.

Turning to `COc1ccc(F)cc1C(=O)NCc1ccc(-c2nn(C[C@@H]3C[C@H](O)CN3C(=O)n3cncn3)c3ncnc(N)c23)cc1` [Compound 241, N-(4-(4-amino-1-(((2S,4S)-4-hydroxy-1-(1H-1,2,4-triazole-1-carbonyl)pyrrolidin-2-yl)methyl)-1H-pyrazolo[3,4-d]pyrimidin-3-yl)benzyl)-5-fluoro-2-methoxybenzamide], the IC50 on BTK wildtype protein and at BTK C481S protein was at most 1000 nM throughout.

`COc1ccc(F)cc1C(=O)NCc1ccc(-c2nn(C(Cc3ccccc3)CN(C)C(=O)n3cncn3)c3ncnc(N)c23)cc1` (stereo not drawn) [Compound 237, N-(2-(4-amino-3-(4-((5-fluoro-2-methoxybenzamido)methyl)phenyl)-1H-pyrazolo[3,4-d]pyrimidin-1-yl)-3-phenylpropyl)-N-methyl-1H-1,2,4-triazole-1-carboxamide]: the IC50 at BTK wildtype protein and on BTK C481S protein was over 1000 nM throughout.

On to `COc1ccc(F)cc1C(=O)NCc1ccc(-c2nn(CCN(C(=O)n3cncn3)C3CC3)c3ncnc(N)c23)cc1` [Compound 316, N-(2-(4-amino-3-(4-((5-fluoro-2-methoxybenzamido)methyl)phenyl)-1H-pyrazolo[3,4-d]pyrimidin-1-yl)ethyl)-N-cyclopropyl-1H-1,2,4-triazole-1-carboxamide], for which the IC50 on BTK wildtype protein and at BTK C481S protein was over 1000 nM throughout.

For `COc1ccc(F)cc1C(=O)NCc1ccc(-c2nn(CC3CCCN3C(=O)n3cncn3)c(N)c2C(N)=O)cc1` (stereo not drawn) [Compound 293, 1-((1-(1H-1,2,4-triazole-1-carbonyl)pyrrolidin-2-yl)methyl)-5-amino-3-(4-((5-fluoro-2-methoxybenzamido)methyl)phenyl)-1H-pyrazole-4-carboxamide], the IC50 at BTK wildtype protein and at BTK C481S protein was at most 1000 nM throughout.

Turning to `CN(CCC1CCNc2c(-c3ccc(Oc4ccccc4)cc3)c(C(N)=O)nn21)C(=O)n1cncn1` (stereo not drawn) [Compound 167, 7-(2-(N-methyl-1H-1,2,4-triazole-1-carboxamido)ethyl)-3-(4-phenoxy-phenyl)-4,5,6,7-tetrahydro-pyrazolo[1,5-a]pyrimidine-2-carboxamide], the IC50 on BTK wildtype protein and at BTK C481S protein was over 1000 nM in each case.

For the compound `COc1ccc(C)cc1C(=O)NCc1ccc(-c2nn(CC3CCCCN3C(=O)n3cncn3)c3ncnc(N)c23)cc1` (stereo not drawn) [Compound 217, N-(4-(1-((1-(1H-1,2,4-triazole-1-carbonyl)piperidin-2-yl)methyl)-4-amino-1H-pyrazolo[3,4-d]pyrimidin-3-yl)benzyl)-2-methoxy-5-methylbenzamide], the IC50 is at most 1000 nM on BTK wildtype protein and over 1000 nM on BTK C481S protein.

Take `COC[C@@H](C1CCNc2c(C(N)=O)c(-c3ccc(Oc4ccccc4)cc3)nn21)N(C)C(=O)n1cncn1` (stereo partly drawn) [Compound 285, 7-((R)-2-methoxy-1-(N-methyl-1H-1,2,4-triazole-1-carboxamido)ethyl)-2-(4-phenoxyphenyl)-4,5,6,7-tetrahydropyrazolo [1,5-a]pyrimidine-3-carboxamide]: the IC50 at BTK wildtype protein and at BTK C481S protein was over 1000 nM throughout.

In the case of `CN(C(=O)n1cncn1)C1CCCN(c2ncnc3[nH]ccc23)C1` (stereo not drawn) [Compound 192, N-(1-(7H-pyrrolo[2,3-d]pyrimidin-4-yl)piperidin-3-yl)-N-methyl-1H-1,2,4-triazole-1-carboxamide], the IC50 at BTK wildtype protein and at BTK C481S protein was over 1000 nM in each case.

Regarding `Cc1[nH]c2c(C(N)=O)cc(F)c(N3CCCC(N(C)C(=O)n4cncn4)C3)c2c1C` (stereo not drawn) [Compound 262, 5-fluoro-2,3-dimethyl-4-(3-(N-methyl-1H-1,2,4-triazole-1-carboxamido)piperidin-1-yl)-1H-indole-7-carboxamide], the IC50 at BTK wildtype protein and on BTK C481S protein was at most 1000 nM throughout.

For `COc1ccc(F)cc1C(=O)NCc1ccc(-c2nn(CC3CCCCN(C(=O)n4cncn4)C3)c(N)c2C(N)=O)cc1` (stereo not drawn) [Compound 296, 1-((1-(1H-1,2,4-triazole-1-carbonyl)azepan-3-yl)methyl)-5-amino-3-(4-((5-fluoro-2-methoxybenzamido)methyl)phenyl)-1H-pyrazole-4-carboxamide], the IC50 at BTK wildtype protein and on BTK C481S protein was at most 1000 nM throughout.

In the case of `COc1ccc(F)cc1C(=O)NCc1ccc(-c2nn(-c3ccccc3CN(C)C(=O)n3cncn3)c3ncnc(N)c23)cc1` [Compound 143, N-(2-(4-amino-3-(4-((5-fluoro-2-methoxybenzamido)methyl)phenyl)-1H-pyrazolo[3,4-d]pyrimidin-1-yl)benzyl)-N-methyl-1H-1,2,4-triazole-1-carboxamide], the IC50 at BTK wildtype protein and at BTK C481S protein was over 1000 nM each time.

For `CN(C(=O)n1cncn1)[C@@H]1CCC[C@H](n2nc(-c3ccc(Oc4ccccc4)cc3)c(C(N)=O)c2N)C1` [Compound 297, N-((1R,3S)-3-(5-amino-4-carbamoyl-3-(4-phenoxyphenyl)-1H-pyrazol-1-yl)cyclohexyl)-N-methyl-1H-1,2,4-triazole-1-carboxamide], the IC50 at BTK wildtype protein and at BTK C481S protein was at most 1000 nM in each case.
